Laboratory results as given in US9243019B2 (priority 2013, dated 2016).
Like-named read-outs stand apart in the source and are kept apart here.

Assay type: physicochemical
[1] = Table 3, accelerated for 0 month, hydroxysafflor yellow A per CN102675379A purity 89.9%, sodium salt purity 98.6%
[2] = Table 3, accelerated for 1 month, hydroxysafflor yellow A per CN102675379A purity 89.9%, sodium salt purity 98.6%
[3] = Table 3, accelerated for 2 months, hydroxysafflor yellow A per CN102675379A purity 89.9%, sodium salt purity 98.6%
[4] = Table 3, accelerated for 3 months, hydroxysafflor yellow A per CN102675379A purity 89.9%, sodium salt purity 98.6%
[5] = Table 4, accelerated for 0 month, hydroxysafflor yellow A by acidizing purity 99.2%, sodium salt purity 99.2%
[6] = Table 4, accelerated for 2 months, hydroxysafflor yellow A by acidizing purity 99.2%, sodium salt purity 99.2%
[7] = Table 4, accelerated for 3 months, hydroxysafflor yellow A by acidizing purity 99.2%, sodium salt purity 99.2%

O=C(/C=C/c1ccc(O)cc1)C1=C(O)C(O)(C2OC(CO)C(O)C(O)C2O)C(O)=C(C2OC(CO)C(O)C(O)C2O)C1=O (stereo not drawn) [Hydroxysafflor yellow A, hydroxysafflor yellow A]
Content (counting Hydroxyl A) [1]: 89.8% | Total impurity [1]: 10.1% | Content (counting Hydroxyl A) [2]: 84.7% | Total impurity [2]: 14.9% | Content (counting Hydroxyl A) [3]: 79.2% | Total impurity [3]: 20.8% | Content (counting Hydroxyl A) [4]: 71.2% | Total impurity [4]: 28.6% | Content (counting Hydroxyl A) [5]: 99.1% | Total impurity [5]: 0.8% | Total impurity (Table 4, accelerated for 1 month, hydroxysafflor yellow A by acidizing purity 99.2%, sodium salt purity 99.2%): 5.9% | Content (counting Hydroxyl A) [6]: 89.2% | Total impurity [6]: 10.7% | Content (counting Hydroxyl A) [7]: 81.3% | Total impurity [7]: 18.6%
